In patent US20030105167A1, “Treatment of opthalmic diseases” (priority 2001, published 2003):

Key:
retinal ganglion cells = assay: Survival of axotomized retinal ganglion cells after intraorbital optic nerve transection; assay type: in vivo; settings: ovarectomized adult female rats, twice daily subcutaneous injection in oil, two days prior to eight days following transection; counted after an additional 4 weeks
Protocol: The drugs were dissolved in sesame oil (Penta) at 100 ug/ml. Adult female rats to be used in these experiments were first ovarectomized. Rats were then subjected to intraorbital transection of the optic nerve, a procedure that leads to progressive degeneration of the majority of retinal ganglion cells. Cells survive for a few days and then die abruptly such that by one week only 50% survive and by two weeks only 10% survive. Axotomy is well known to lead to the death of retinal ganglion cells by an apoptotic process, causing classical cytochemical alterations characteristic of programmed cell death.
From two days prior to eight days following optic nerve transactions, 17β-estradiol, ent-17β-estradiol, or appropriate amount of vehicle control sample was administered to the animals by a twice daily subcutaneous injection of compound in oil at 100 ug/ml (see above), such that the final concentration delivered was 100 ug/. If the protective compounds to be used are in a water soluble formulation, they can, alternatively, be delivered by a single intravitreal injection. […]
After an additional 4 weeks, the retinal ganglial cells were labeled by retrograde staining with the carbocyanine dye, 4Di-10Asp, which was applied to the nerve stump. Three days later animals were sacrificed and surviving retinal cells were counted in retinal whole mounts. […]

[1] = test system: SHSY-5Y neuroblastoma cells; assay: FRET assay of Ca+2-induced mitochondrial membrane potential (ΔΨm) collapse in neuroblastoma cells; assay type: cell-based; settings: FIG. 1; right shift of dose response curve compared to control
Protocol: With reference to FIG. 1, mitochondria rapidly take up exogenous Ca^+2 to a maximum value before undergoing an irreversible loss of ΔΨm. ΔΨm was monitored after exposure to Ca^+2 concentrations ranging from 0 to 50 uM using a fluorescence resonance energy transfer (FRET) assay (Dykens and Stout, 2001). Cells were preincubated with 17β-estradiol and 17α-estradiol at 0.5 uM for 2.5 hrs. prior to Ca^+2 challenge, which was imposed by adding Ca^+2 directly to cells that had been permeabilized with digitonin (0.008%) final concentration, 5 min). The response, calculated as area under the curve, was plotted versus log Ca^+2 concentration using sigmoid regression analysis.
The excitation dye in the FRET ΔΨm assay is nonyl acridine orange (NAO). NAO is an exceptionally selective stain for cardiolipin, a lipid found intracellularly almost exclusively (>99%) in the mitochondrial inner membrane. Its staining of the inner membrane is independent of ΔΨm. […]
Because uptake and retention of TMR depends on ΔΨm, at a given dye concentration, the extent of quenching of NAO by TMR reflects the magnitude of ΔΨm. […] The corresponding loss of proximity abolishes quenching of NAO, so that loss of ΔΨm is detected as an increase in NAO fluorescence.

cell culture models = settings: doses as low as; cited from earlier work
[2] = test system: Transformed rat retinal ganglion cells (RGC-5 cells); assay: FRET assay of Ca+2-induced ΔΨm collapse in transformed retinal ganglion cells; assay type: cell-based; settings: FIG. 2; for extent of mitochondrial failure at the highest Ca+2 concentration: P<0.05 via ANOVA; for extent of mitochondrial collapse compared to buffer-treated controls: compound 5 minutes prior to Ca+2
Description: Transformed rat retinal ganglion cells (RGC-5 cells) were produced by transforming Sprague-Dawley rat retinal cells from postnatal day I rats with replication incompetent Ψ2 EIA virus and was originally established to help illuminate the basic mechanisms underlying RGC apoptosis in glaucoma (Krishnomoorthy, et al., 2001). The cells express the specific cellular marker, Thy-1, consistent with their retinal ganglion cell origin. Confirmation of Thy-1 expression was made by RT-PCR, immunocytochemistry and immunoblot analysis. […] The toxicity response with glutamate has an EC50 of about 50 uM. Importantly, transformed RGC cells undergo TUNEL-positive apoptotic-mediated cell death upon serum deprivation, indicating the presence of classical apoptosis pathways induced by mitochondrial dysfunction and/or failure.
Possible mitochondrial responses of our compounds are evaluated in intact RGC-5 cells using an assay for mitochondrial ΔΨm which is based on fluorescence energy transfer (FRET) between two dyes that colocalize to the mitochondria. The FRET assay circumvents the confounding variables of plasma membrane potential and the low flourcscence efficiency typical of single potentiometric dyes (Dykens and Stout, 2001). Transformed retinal ganglion cells (RGC-5) were plated at a concentration of 60K cells/well twenty-four hours prior to the experiment. The cells were permeabilized in place with 0.08% digitonin. Cells were exposed to 17β-estradiol, 17α-estradiol, and a non-hormonal PPC, Compound H (see Example 5), for 5 minutes prior to the addition of Ca^+2.
The excitation dye in the FRET ΔΨm assay is nonyl acridine orange (NAO). NAO is an exceptionally selective stain for cardiolipin, a lipid found intracellularly almost exclusively (>99%) in the mitochondrial inner membrane. Its staining of the inner membrane is independent of ΔΨm. The second dye is tetramethylrhodamine (TMR), a potentiometric dye that is sequestered into the mitochondrial matrix as a Nernstian function of ΔΨm and imposed concentration. It is the specificity of NAO staining for cardiolipin, combined with the absolute prerequisite for close proximity of both dyes, that allows this FRET assay to report ΔΨm without interference from plasma membrane potential.
Because uptake and retention of TMR depends on ΔΨm, at a given dye concentration, the extent of quenching of NAO by TMR reflects the magnitude of ΔΨm. Dissipation of ΔΨm, in response to […], elevated Ca+2 load, or respiratory […], results in efflux of TMR from the mitochondrion. The corresponding loss of proximity abolishes quenching of NAO, so that loss of ΔΨm is detected as an increase in NAO fluorescence.

retinal ganglion layer = settings: administered prior to the insult; several days following reperfusion; cited from earlier work
[3] = test system: mouse HT-22 hippocampal cells; assay: Protection against glutamate toxicity, calcein AM viability; assay type: cell-based; settings: glutamate 10 mM, 16 hours, representative study; read-out: Calculated EC50 for protection of cell viability
Protocol: For instance, in this study, mouse HT-22 hippocampal cells were cultured in DMEM supplemented with 10% fetal calf serum. Cells were plated and simultaneously treated with glutamate (10 mM) and one of the test compounds individually, for instance compound H (also referred to as Compound 4565 in FIG. 2 and one of many protective PPCs disclosed in PCT publications WO02/36605 and WO00/63228), below or positive control 17β-estradiol (E), at various doses between 10 nM and 10 µM. After 16 hours, cell viability was determined using the calcein AM fluorescence (Excitation/Emission 485/530 […]) in a Bio-Tex Microplate Fluorescence Reader.

[4] = test system: Trabecular meshwork cells; assay: Survival of primary trabecular meshwork cells under toxic conditions (live-dead dyes); assay type: cell-based; settings: hydrogen peroxide 100 uM, 24 hours, compound 2nM
Protocol: Trabecular meshwork cells used here were grown from fresh explants obtained from normal donors according to the procedures described in Agarwal et al., (1999) Exp Eye Res., Vol. 68, pp. 583 90 and Hogg et al., (2000) Invest Ophthalmol Vis. Sci., Vol. 41, pp. 1091-8. Cells were toxic conditions by exposure to hydrogen peroxide at 100 uM for 24 hours, which typically kills at least 50% of cells. With different batches of cells, the hydrogen peroxide concentration necessary to obtain 50% cell death frequently needs to be determined empirically. Trabecular cell viability was assessed using commercially available live-dead dyes. Other stains such as stains for DNA fragmentation or annexin binding are also suitable.
Compounds C and D, above, were initially dissolved at lmg/ml in absolute ethanol and diluted in culture medium to a final concentration of 2nM. To control for possible ethanol effects in the treated wells, all batches of media used here as were supplemented with absolute ethanol at appropriate concentrations. Cultured trabecular cells were incubated under toxic conditions with either compound C, compound D or no compound added for a period of 24 hours. Trabecular cell viability was assessed using commercially available live-dead dyes.

[5] = test system: Human retinal pigment epithelial cells (RPE340 cells); assay: Survival of retinal pigment epithelial cells under hyperoxia (Trypan blue exclusion); assay type: cell-based; settings: 40% O2 hyperoxia, 5 days, compound 2 nM
Protocol: Human retinal pigment epithelial cells (RPE340 cells) were grown and subjected to conditions of hyperoxia according to Honda et al., (2001) Invest Ophthalmol Vis. Sci., Vol. 42, pp. 2139-44. The cells were subjected to either 40% O2 or 20% O2 (control) for the duration of the experiment. These conditions are known to induce apoptotic cell death.
Compounds A and B, above, were initially dissolved at 1 mg/ml in absolute ethanol and diluted in culture medium to a final concentration of 2 nM. To control for possible ethanol effects in the treated wells, all batches of media used here were supplemented with absolute ethanol at appropriate concentrations. Cells were incubated under hyperoxic conditions with either compound A, compound B or no compound added for a period of 5 days. Effects on cell viability and growth were monitored by Trypan blue exclusion.

[6] = test system: Transformed rat retinal ganglion cells (RGC-5 cells); settings: read-out: EC50 of toxicity response; cited from earlier work

C[C@@]12CC[C@H]3c4ccc(O)cc4CC[C@@H]3[C@H]1CC[C@H]2O (single isomer, unassigned; ent-17) [ent-17β-estradiol]
number of surviving retinal ganglial cells compared to the controls (retinal ganglion cells): 3 fold

C[C@]12CC[C@@H]3c4ccc(O)cc4CC[C@H]3[C@@H]1CC[C@H]2O [17α-estradiol]
amount of Ca+2 required to induce ΔΨm collapse [1]: substantially increase | dose giving substantial cytoprotection (cell culture models): 0.2 nM | extent of mitochondrial failure at the highest Ca+2 concentration [2]: significantly lowered | extent of mitochondrial collapse compared to buffer-treated controls [2]: moderated

C[C@]12CC[C@@H]3c4ccc(O)cc4CC[C@H]3[C@@H]1CC[C@@H]2O [17β-estradiol]
cell density in the retinal ganglion layer (retinal ganglion layer): significantly higher | amount of Ca+2 required to induce ΔΨm collapse [1]: substantially increase | EC50 [3]: 2.2 µM | dose giving substantial cytoprotection (cell culture models): 0.2 nM | extent of mitochondrial failure at the highest Ca+2 concentration [2]: significantly lowered | extent of mitochondrial collapse compared to buffer-treated controls [2]: moderated | number of surviving retinal ganglial cells compared to the controls (retinal ganglion cells): 3 fold

C[C@]12CC[C@@H]3c4cc(C56CC7CC(CC(C7)C5)C6)c(O)cc4CC[C@H]3[C@@H]1CCC2=O [C, 2-(1-Adamantyl)-3-hydroxyestra-1,3, 5 (10)-trien-17-one]
survival of trabecular cells [4]: significantly improve survival

CC(C)(C)c1cc2c(cc1O)CC[C@@H]1[C@@H]2CC[C@]2(C)C(=O)CC[C@@H]12 [D, 2-(1-tertbutyl)-3-hydroxyestra-1,3, 5 (IO)-trien-17-one]
survival of trabecular cells [4]: significantly improve survival

C[C@]1(CO)CC[C@@H]2c3ccc(O)cc3CC[C@H]2C1 [compound A, [2S-(2a, 4aα, 10aβ)]-1,2,3,4,4a,9,10,10a-octahydro-7-hydroxy-2-methyl-2-phenanthrenemethanol]
protection from cell death [5]: protect these cells from cell death

C[C@]1(C=O)CC[C@@H]2c3ccc(O)cc3CC[C@H]2C1 [compound B, [2S-(2a, 4aα, 10aβ)]-1,2,3,4,4a, 9, 10, 10a-octahydro-7-hydroxy-2-methyl-2-phenanthrenecarboxaldehyde]
protection from cell death [5]: protect these cells from cell death

N[C@@H](CCC(=O)O)C(=O)O [glutamate]
EC50 [6]: ~50 µM
